In patent EP0451791A2, “Long acting liposome compositions containing peptid drugs and method for their preparation” (HOECHST AKTIENGESELLSCHAFT, priority 1990, dated 1991):

Tested on: weiblicher Ratten
Test: Cycle (oestrus) suppression in female rats after s.c. injection, weekly vaginal smear (Beispiel 2)
Type: in vivo
Conditions: HOE 013 solution 60 μg daily, liposomes single dose 3200 μg HOE 013
Procedure: 2 x 1 ml der Liposomen (entspr. einer Einmalgabe von 3200 µg HOE 013) aus Beispiel 1 werden subkutan weiblichen Ratten von ca. 200 g Körpergewicht injiziert. Als Kontrolle dient eine gleiche Testgruppe von Tieren, die nur Lösungsmittel (Kochsalzlösung) erhält (Placebo) und eine Gruppe von Tieren, die mit täglichen Gaben von LHRH-Antagonist-Lösung (60 µg) (in 5 %iger Mannitlösung) behandelt wird. Die Östrussuppression der Tiere wird durch wöchentlichen Östrusabstrich überprüft. Am Tag 35 wird die Konzentration von HOE 013 im Urin gemessen und die 24 h-Ausscheidung berechnet.
Die Ergebnisse (s. Tabelle 1) zeigen, daß die Tiere der Liposomengruppe im Gegensatz zu den beiden Kontrollgruppen nach 35 Tagen noch deutlich supprimiert sind. Die Exkretionsrate am Tag 35 (4,5 µg) belegt eine signifikante Ausscheidung des Antagonisten im Falle der Liposomenpräparation. Diese Exkretionsrate ist mit der Plasmakonzentration eng korreliert.

Measured: Ratten mit Zuyklussuppression/ Ratten pro Gruppe

Ac-D-Nal-p-Cl-D-Phe-D-Trp-Ser Tyr-D-Ser (α-L-Rha)-Leu-Arg-Pro-Azagly-NH₂ [HOE 013]
0/11: Tag 1 of vaginal cytology | Tag 7 of vaginal cytology | Tag 14 of vaginal cytology | Tag 21 of vaginal cytology | Tag 28 of vaginal cytology | Tag 35 of vaginal cytology
